Source: ChEMBL document CHEMBL1123949, “Molecular structure of fluoxetine hydrochloride, a highly selective serotonin-uptake inhibitor” (J Med Chem, 1988)
pIC50: −log10 of the molar value.

Key:
Rattus norvegicus [1] = species on record: Rattus norvegicus; assay: In vitro inhibition of serotonin (5-HT) uptake in crude rat brain synaptosomes; assay type: functional, organism-based
Rattus norvegicus [2] = species on record: Rattus norvegicus; assay: In vitro inhibition of norepinephrine (NE) uptake in crude rat brain synaptosomes (% inhibition at maximum concentration)
Rattus norvegicus [3] = species on record: Rattus norvegicus; assay: In vitro inhibition of norepinephrine (NE) uptake in crude rat brain synaptosomes; assay type: functional, organism-based

| SMILES | pIC50 (Rattus norvegicus [1]) | pIC50 (Rattus norvegicus [2]) | pIC50 (Rattus norvegicus [3]) |
| --- | --- | --- | --- |
| CNCCC(Oc1ccc(C(F)(F)F)cc1)c1ccccc1 (stereo not drawn) [FLUOXETINE] | 7.15 | < 5.00 |  |
| CN[C@@H]1CCC(c2ccccc2)c2ccccc21 (stereo partly drawn) | 6.08 |  | 7.74 |
| NC12CCC(c3ccc(Br)cc3)(CC1)CC2 | 6.17 |  | 4.27 |
| CNCC[C@@H](Oc1ccccc1C)c1ccccc1 [ATOMOXETINE] | 5.82 |  | 8.40 |
| NC12CCC(c3ccccc3)(CC1)CC2 | 7.02 |  | 7.10 |
| CNCCC(Oc1ccccc1OC)c1ccccc1 (stereo not drawn) [NISOXETINE] | 5.70 |  | 8.00 |
| CC(N)C(=O)OC(C)(C)Cc1ccc(Cl)cc1 (stereo not drawn) [ALAPROCLATE] | 6.15 |  | < 4.47 |
| COc1ccc(OC[C@H]2CN(C)CC[C@@H]2c2ccccc2)cc1 [FEMOXETINE] | 8.08 |  | 6.39 |
| CNCCCOc1ccc(C(F)(F)F)cc1 | 5.52 |  | < 5.00 |
